Measurements as given in patent US8158589B2, “Peptides with the capacity to bind to transforming growth factor β1 (TGF-β1)” (Proyecto Biomedicine Cima, S.L., priority 2003, dated 2012).
Ends that are not written are not given here.

Assays:
TGF-β1 [1] = biological target: T1, TGF-β1 (Mus musculus, UniProt P04202); assay: Model of acute liver damage induced by CCl4, type I collagen mRNA by real time PCR; format: in vivo, mice; parameters: key to % Inhibition of type I collagen mRNA induction (in vivo TGF-β1 biological activity): Neg: negative; details: for % Inhibition of type I collagen mRNA induction (in vivo TGF-β1 biological activity): Balb/C mice, oral CCl4, 50 μg of peptide every 24 h, sacrifice after 72 hours
T1 construct: from tissue; host or cells: liver of Balb/C mice (CCl4 model); lung of C57BL/6 mice (bleomycin model)
T1 sequence (P04202 279-390 limits assumed): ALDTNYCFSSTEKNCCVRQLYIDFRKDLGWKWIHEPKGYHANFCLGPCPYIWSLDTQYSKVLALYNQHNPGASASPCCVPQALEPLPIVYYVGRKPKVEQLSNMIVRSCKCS
Method: Acute liver damage generates a cascade of effects and physiological responses, including elevations in the concentrations of TGF-β1. This elevation is responsible for the expression of the type I collagen gene, among others. In this model of acute liver damage, female Balb/C mice weighing 25 to 30 g, were orally administered a dose of 2 μl of CCl4 (per gram of body weight) dissolved in an equivalent volume of corn oil (volumetric ratio of 1:1). The control group received an equivalent volume of corn oil only, and the treated groups received (following the single oral administration of CCl4 in corn oil) 50 μg of peptide in 500 μl of 1% physiological saline solution in DMSO (dimethyl sulfoxide) every 24 h. After 72 hours all animals were sacrificed, and the liver samples were processed. To evaluate mRNA expression, liver tissue was frozen in liquid nitrogen and stored at −80° C. until further use. Other liver tissue samples were stored in OCT® or Tissue-Tek® (Sakura Finetek B.V.) and processed in the same way as the samples used for mRNA studies. Other liver samples were fixed in 10% buffered formalin solution, embedded in paraffin and processed for their histological evaluation. The amount of mRNA encoding type I collagen was quantified in all groups using a quantitative polymerase chain reaction (PCR) technique. […] The capacity of the testing peptides to block the acute damage, as assessed by measuring the levels of induced type I collagen mRNA was quantified by real time PCR. […] The peptides tested were obtained by conventional solid peptide synthesis procedures (Merrifield R B. J Am Chem Soc 1963; 85:2149-2154; Atherton E et al. J Chem Soc Perkin Trans 1981; 1:538-546).

TGF-β1 [2] = biological target: TGF-β1 (Homo sapiens, UniProt P01137); assay: Biopanning of phage-displayed 15-aa peptide library on biotinylated TGF-β1, number of colonies per sequence; format: binding; parameters: purchased Roche; host or cells: added to Mv-1-Lu (CCL-64) mink lung epithelial cells; details: clones carrying the sequence among 108 colonies after the last biopanning cycle; approximate indication of affinity for TGF-β1
Sequence of TGF-β1 (Homo sapiens, UniProt P01137) (P01137 279-390 limits assumed, species assumed): as the sequence (P04202 279-390 limits assumed) above, with S75A counted along it
Text: These libraries comprise a plurality of filamentous bacteriophages (M13), each one containing a peptide genetically fused to a protein of the virus envelope—in this case bound to the N-terminal end of envelope protein pIII (FIG. 1). […] In the phage libraries, the sequence encoding the peptide originates from a sequence degenerated in each one of the 15 positions with the 20 natural amino acids, thus allowing the presentation of 1.1×10^12 possible sequences of 15 amino acids in different phages. The physical ratio, 1:1, between the peptide sequence and the DNA encoding it within the bacteriophage allows the selection (from a broad range of variants) of those sequences that specifically bind to TGF-β1. This process is carried out via an in vitro selection protocol known as “biopanning”.
This technique involves incubating a set of phages representative (to practical effects) of all the 15-aa variants, in a plate blocked with streptavidin (10 μg/ml in 0.1 M NaHCO3, during 2 h at room temperature) to which biotinylated TGF-β1 is added. […] TGF-β1 contacts the peptides carried by the phages at a concentration of […]. After about 12 hours incubation, unbound phages are eliminated by 5 washings with PBS/Tween (phosphate buffered saline/polyoxyalkylene derivatives of sorbitan fatty acid esters). […] The eluted phages are then amplified by infection in a bacterial strain (E. coli). The process is repeated three cycles so that an enrichment in the content of phages which specifically bind, and with high affinity, to TGF-β1 is achieved (FIG. 3). […] Thus, the phages selected in each cycle show more and more affinity for TGF-β1. At the end of the process, phages which have been selected for their affinity for TGF-β1, are sequenced by using primers, after isolation by tetracycline resistance of the genetically modified phages after infecting E. coli cells. […] The number of times which a sequence is repeated, corresponding to a 15 amino acids peptide carried by each clone, from the total of sequenced colonies is an indication of the degree of relative affinity of said 15 amino acids sequence for TGF-β1.
The selection of clones, obtained from the “biopanning”, was carried out by selection of the bacterial colonies infected with the phages in the presence of a bacterial antibiotic; the bacteria resistance is acquired by a tetracycline resistance gene encoded by the phage genome. Thus, only those colonies infected with bacteriophages are able to grow. This means that each colony contains the genome of only one phage coding for only one peptide presented in its surface.
A total number of 108 colonies of phage-infected bacteria were obtained from the last selection cycle of “biopanning”. The sequence of the regions coding for the peptides present in the pIII protein was carried out using primers identified with SEQ ID NO: 23. This table also reflects the number of colonies (clones) carrying said sequences.
The number of clones (colonies) of each sequence gives an approximate indication of the degree of affinity of the peptide for TGF-β1, that is, the more colonies the more binding affinity.

Row | No. colonies (TGF-β1 [2]) | Sequence | % Inhibition of type I collagen mRNA induction (in vivo TGF-β1 biological activity) (TGF-β1 [1]) | inhibition of the biological activity of TGF-β1 in vivo (in words) (TGF-β1 [1]; acute liver damage, type I collagen mRNA)
1 | 2 | WHWRHRIPLQLAAGR [SEQ ID NO: 8] | Neg | 
2 | 2 | HRISHFAHRYLARLH [SEQ ID NO: 7] | Neg | 
3 | 1 | RLHGHRSHRFTHVAQ [SEQ ID NO: 16] | Neg | 
4 | 1 | RHLSHFKWLRSHGLD [SEQ ID NO: 19] | 12.12% | 
5 | 1 | RRWVRYPVHLHSPIV [SEQ ID NO: 5] | Neg | 
6 | 1 | RRFHFHSRMVAVDNS [SEQ ID NO: 20] | 1.41% | 
7 | 1 | HVRLHHYLRHRSLPN [SEQ ID NO: 21] | Neg | 
8 | 6 | DRRIFWWSLRSAPGA [SEQ ID NO: 1] | 0.69% | 
9 | 1 | FVWVRFHRLPRQIYT [SEQ ID NO: 10] | Neg | 
10 | 1 | DRRIFWWSNRSAPGA [SEQ ID NO: 2] | 36.6 ± 30.7% | only inhibitory activity
11 | 1 | WHKYFLRRPLSVGLG [SEQ ID NO: 12] | Neg | 
12 | 1 | VPMALNHGVYVMVSS [SEQ ID NO: 22] | Neg | 
13 | 1 | GWITFHRRHHDRVLS [SEQ ID NO: 15] | 14.26% | 
14 | 1 | GWHSLLHSRYHRLAA [SEQ ID NO: 9] | 26.59% | 
